Data as given in US9409952B2, “Peptide-compound cyclization method” (Chugai Seiyaku Kabushiki Kaisha, priority 2011, dated 2016).
Like-named read-outs stand apart in the source and are kept apart here. Starred links: 1 amine or outer side, 2 acyl side, 3 side chain; linkers in the order of their positions; H or OH if unused. Positions of bridges follow the written chain, without caps; N, C: chain ends. Non-standard residues stand in square brackets, D forms with d. Residues, ends and D or L forms follow the SMILES beside them. *: point of attachment. NMePhe(3-Cl) = CN[C@@H](Cc1cccc(Cl)c1)C(=O)O; NMeF = CN[C@@H](Cc1ccccc1)C(=O)O; NMeGABA = CN(CCCC(=O)[*:2])[*:1]; NMeI = CC[C@H](C)[C@H](NC)C(=O)O; NMeβAla = CN(CCC(=O)[*:2])[*:1]; NMeL = CN[C@@H](CC(C)C)C(=O)O; NMeV = CN[C@H](C(=O)O)C(C)C; NMeA = CN[C@@H](C)C(=O)O; Piperidide = C1CCN(*)CC1; dNMeA = CN[C@H](C)C(=O)O; β3hA = C[C@H](N)CC(=O)O; Sar = CNCC(=O)O; tBu = CC(C)(C)*

Key:
[1] = Metabolic stability in human hepatic microsome; format: in vitro ADME; conditions: microsomes
[2] = PAMPA (parallel artificial membrane permeability assay); format: in vitro ADME; conditions: PAMPA
How it was run: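 Artificial membrane was 10% (w/v) egg lecithin plus 0.5% (w/v) cholesterol in dodecane on a PVDF filter. A 10 mM DMSO stock was added at 0.5% (v/v) to donor buffer (50 mM MOPSO, pH 6.5, 5.0% glycocholic acid). After 18 h at 37 °C, LC/MS or LC/UV gave donor and acceptor levels for Pe.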

[3] = pH 7.4, human hepatic microsome, NADPH(+), read-out: CL NADPH(+)
[4] = membrane permeation rate (Pe), 50 mM MOPSO buffer pH 6.5 with 5.0% glycocholic acid, 37° C., 18 hours, read-out: iPAMPA Pe

Compound	microsomal CLint at 1 uM [1, 3]	Papp at 18 hours, 50 µM [2, 4]	microsomal CLint at 1 uM ([1]; human, pH 7.4, CL NADPH(+))	Papp at 18 hours, 50 µM ([2]; pH 6.5)
CC[C@H](C)[C@@H]1NC(=O)[C@H](Cc2ccccc2)N(C)C(=O)[C@H](CC(C)C)NC(=O)[C@H](CC(C)C)NC(=O)[C@H](Cc2ccccc2)NC(=O)[C@H](CC(C)C)NC(=O)[C@@H](C)NC(=O)C[C@@H](C(=O)N2CCCCC2)NC(=O)[C@H](Cc2ccccc2)NC(=O)[C@H]([C@@H](C)O)NC1=O [DP-115] ([dA]LFLL[NMeF]ITFD-Piperidide; lactam N-10)	28 µL/min/mg	0.45 ×10⁻⁶ cm/s		
CC(C)C[C@H]1C(=O)N[C@@H]([C@@H](C)O)C(=O)N[C@H](C(=O)N(C)[C@@H](Cc2ccccc2)C(=O)N(C)[C@@H](Cc2ccccc2)C(=O)N[C@@H](C)C(=O)N2CCCCC2)CC(=O)N(C)[C@@H](C)C(=O)N(C)CC(=O)N(C)[C@@H](Cc2ccccc2)C(=O)N(C)[C@@H](C)C(=O)N[C@@H](C)C(=O)N(C)[C@@H](C)C(=O)N1C [DP-406] ([NMeA][Sar][NMeF][NMeA]A[NMeA][NMeL]TD[NMeF][NMeF]A-Piperidide; lactam N-9)	11 µL/min/mg	4.4 ×10⁻⁶ cm/s		
CC[C@H](C)[C@@H]1NC(=O)[C@H](CC(C)C)N(C)C(=O)CN(C)C(=O)[C@H]([C@@H](C)O)NC(=O)[C@H](C)N(C)C(=O)C[C@@H](C(=O)N(C)[C@@H](Cc2ccccc2)C(=O)N(C)[C@@H](C)C(=O)N[C@H](C(=O)N[C@@H](C)C(=O)N2CCCCC2)C(C)C)NC(=O)[C@H](CC(C)C)N(C)C(=O)[C@H](Cc2ccccc2)N(C)C(=O)[C@H](CC(C)C)N(C)C1=O [DP-660] ([NMeA]T[Sar][NMeL]I[NMeL][NMeF][NMeL]D[NMeF][NMeA]VA-Piperidide; lactam N-9)	222 µL/min/mg	27 ×10⁻⁶ cm/s		
CC(C)C[C@H]1C(=O)N[C@@H]([C@@H](C)O)C(=O)N(C)[C@@H](Cc2ccccc2)C(=O)N(C)[C@@H](CC(C)C)C(=O)NCC(=O)N(C)[C@@H](C(C)C)C(=O)N[C@@H](Cc2ccccc2)C(=O)N[C@H](C(=O)N(C)[C@@H](Cc2ccccc2)C(=O)N(C)[C@@H](Cc2ccccc2)C(=O)N[C@@H](C)C(=O)N2CCCCC2)CC(=O)N(C)[C@H](C)C(=O)N[C@@H](C(C)C)C(=O)N1C [DP-503] ([dNMeA]V[NMeL]T[NMeF][NMeL]G[NMeV]FD[NMeF][NMeF]A-Piperidide; lactam N-10)	43 µL/min/mg	0.2 ×10⁻⁶ cm/s		
CC[C@H](C)[C@@H]1NC(=O)[C@H](C)NC(=O)C[C@@H](C(=O)N(C)[C@@H](Cc2ccccc2)C(=O)N[C@@H](C)C(=O)N2CCCCC2)NC(=O)[C@H](Cc2ccccc2)NC(=O)[C@H](C)N(C)C(=O)[C@H](C(C)C)N(C)C(=O)CN(C)C(=O)[C@H]([C@@H](C)O)NC(=O)[C@H](Cc2ccccc2)N(C)C(=O)[C@H](CC(C)C)N(C)C(=O)[C@H](CC(C)C)N(C)C1=O [DP-483] (AI[NMeL][NMeL][NMeF]T[Sar][NMeV][NMeA]FD[NMeF]A-Piperidide; lactam N-11)	23 µL/min/mg	18 ×10⁻⁶ cm/s		
CC(C)C[C@@H]1NC(=O)[C@H](Cc2ccccc2)N(C)C(=O)[C@H]([C@@H](C)O)NC(=O)[C@H](Cc2ccccc2)N(C)C(=O)[C@H](C)N(C)C(=O)[C@H](CC(C)C)N(C)C(=O)C[C@@H](C(=O)N2CCCCC2)NC(=O)[C@@H]2CCCN2C1=O [DP-688] ([NMeL][NMeA][NMeF]T[NMeF]LPD-Piperidide; lactam N-8)			23 µL/min/mg	17 ×10⁻⁶ cm/s
CC(C)C[C@H]1C(=O)N(C)[C@@H](Cc2ccccc2)C(=O)N[C@H](C(=O)N2CCCCC2)CC(=O)N(C)[C@@H](C)C(=O)N[C@@H](C)C(=O)N[C@@H]([C@@H](C)O)C(=O)N(C)[C@@H](CC(C)C)C(=O)N[C@@H](Cc2ccccc2)C(=O)N1C [DP-699] ([NMeA]AT[NMeL]F[NMeL][NMeF]D-Piperidide; lactam N-8)	81 µL/min/mg	29 ×10⁻⁶ cm/s		
CC(C)C[C@H]1C(=O)N(C)[C@@H](C)C(=O)N[C@@H](C)C(=O)N[C@H](C(=O)N2CCCCC2)CC(=O)N(C)CCC(=O)N(C)[C@@H](Cc2ccccc2)C(=O)N(C)[C@@H](C)C(=O)N[C@@H]([C@@H](C)O)C(=O)N(C)[C@@H](C)C(=O)N[C@@H](Cc2ccccc2)C(=O)N(C)[C@@H](C(C)C)C(=O)N1C [DP-326] ([NMeβAla][NMeF][NMeA]T[NMeA]F[NMeV][NMeL][NMeA]AD-Piperidide; lactam N-11)	15 µL/min/mg	2.5 ×10⁻⁶ cm/s		
CC[C@H](C)[C@H](NC(=O)[C@H](Cc1ccccc1)N(C)C(=O)[C@H](CC(C)C)N(C)C(=O)[C@@H](NC(=O)[C@@H]1CC(=O)N(C)[C@@H](C)C(=O)N[C@@H]([C@@H](C)CC)C(=O)N(C)[C@@H](CC(C)C)C(=O)N[C@@H]([C@@H](C)O)C(=O)N[C@@H](CC(C)C)C(=O)N(C)[C@@H](Cc2cccc(Cl)c2)C(=O)N1)C(C)C)C(=O)N1CCCCC1 [DP-920] ([NMeA]I[NMeL]TL[NMePhe(3-Cl)]DV[NMeL][NMeF]I-Piperidide; lactam N-7)	27 µL/min/mg	0.22 ×10⁻⁶ cm/s		
CC(C)C[C@H]1C(=O)N[C@@H](COC(C)(C)C)C(=O)N[C@@H]([C@@H](C)O)C(=O)N(C)[C@@H](Cc2ccccc2)C(=O)N(C)[C@@H](CC(C)C)C(=O)N[C@H](C(=O)N2CCCCC2)CC(=O)N[C@@H](C(C)C)C(=O)N1C [DP-748] (V[NMeL]S(tBu)T[NMeF][NMeL]D-Piperidide; lactam N-7)	341 µL/min/mg	45 ×10⁻⁶ cm/s		
CC(C)C[C@@H]1NC(=O)[C@H](Cc2ccccc2)N(C)C(=O)[C@H](C)NC(=O)[C@H](C)N(C)C(=O)C[C@@H](C(=O)N2CCCCC2)NC(=O)[C@H]([C@@H](C)O)NC(=O)[C@H](C)N(C)C(=O)[C@H](C)N(C)C(=O)[C@H](Cc2ccccc2)NC(=O)CN(C)C(=O)[C@H](C(C)C)N(C)C(=O)[C@H](C)N(C)C1=O [DP-470] ([NMeA]A[NMeF]L[NMeA][NMeV][Sar]F[NMeA][NMeA]TD-Piperidide; lactam N-12)	11 µL/min/mg	1.2 ×10⁻⁶ cm/s		
CC[C@H](C)[C@@H]1NC(=O)[C@H](CC(C)C)N(C)C(=O)[C@H](C)NC(=O)CCCN(C)C(=O)C[C@H](C)NC(=O)[C@H]([C@@H](C)O)NC(=O)[C@H](Cc2ccccc2)NC(=O)[C@H](C(C)C)N(C)C(=O)[C@H](Cc2ccccc2)N(C)C1=O [DP-824] (cyclo(A[NMeL]I[NMeF][NMeV]FT[β3hA][NMeGABA]))	501 µL/min/mg	29 ×10⁻⁶ cm/s		
CC(C)C[C@@H]1NC(=O)[C@H]([C@@H](C)O)NC(=O)[C@H](CC(C)C)N(C)C(=O)CN(C)C(=O)[C@H](Cc2ccccc2)N(C)C(=O)[C@H](CC(C)C)NC(=O)C[C@@H](C(=O)N2CCCCC2)NC1=O [DP-723] (L[NMeF][Sar][NMeL]TLD-Piperidide; lactam N-7)	154 µL/min/mg	26 ×10⁻⁶ cm/s		
CC[C@H](C)[C@H]1C(=O)N[C@@H](C)C(=O)N[C@H](C(=O)N2CCCCC2)CC(=O)N[C@H](C)C(=O)N[C@@H](Cc2ccccc2)C(=O)N(C)[C@@H](CC(C)C)C(=O)N[C@@H](CC(C)C)C(=O)N[C@@H](Cc2ccccc2)C(=O)N2CCC[C@H]2C(=O)N[C@@H]([C@@H](C)O)C(=O)N[C@@H](COC(C)(C)C)C(=O)N(C)CC(=O)N1C [DP-88] ([dA]F[NMeL]LFPTS(tBu)[Sar][NMeI]AD-Piperidide; lactam N-12)			32 µL/min/mg	13 ×10⁻⁶ cm/s
C=C1CCC(=O)N[C@@H](CC(C)C)C(=O)N2CCC[C@H]2C(=O)N(C)[C@@H](C(C)C)C(=O)N[C@@H](Cc2ccccc2)C(=O)N(C)CC(=O)N(C)[C@@H](CC(C)C)C(=O)N[C@@H](C)C(=O)N(C)[C@@H]([C@@H](C)CC)C(=O)N[C@H](C(=O)N2CCCCC2)Cc2ccc1cc2 [DP-880]	490 µL/min/mg	34 ×10⁻⁶ cm/s		
CC(C)C[C@@H]1NC(=O)[C@H](CC(C)C)N(C)C(=O)[C@H](Cc2ccccc2)NC(=O)[C@H](C)NC(=O)[C@H](C(C)C)N(C)C(=O)CN(C)C(=O)[C@H]([C@@H](C)O)NC(=O)[C@H](C)N(C)C(=O)[C@H](CC(C)C)N(C)C(=O)[C@H](C)NC(=O)C[C@@H](C(=O)N(C)[C@@H](Cc2ccccc2)C(=O)N[C@@H](C)C(=O)N2CCCCC2)NC1=O [DP-177] (A[NMeL][NMeA]T[Sar][NMeV]AF[NMeL]LD[NMeF]A-Piperidide; lactam N-11)	27 µL/min/mg	23 ×10⁻⁶ cm/s		
CC[C@H](C)[C@H](NC(=O)[C@H](C)N(C)C(=O)[C@@H]1CC(=O)N[C@H](C(C)C)C(=O)N(C)[C@@H](C)C(=O)N(C)[C@@H](CC(C)C)C(=O)N(C)[C@@H](CC(C)C)C(=O)N(C)CC(=O)N(C)[C@@H](Cc2ccccc2)C(=O)N[C@@H](C)C(=O)N(C)[C@@H](Cc2ccccc2)C(=O)N(C)[C@@H](CC(C)C)C(=O)N[C@@H]([C@@H](C)O)C(=O)N1)C(=O)N1CCCCC1 [DP-584] ([dV][NMeA][NMeL][NMeL][Sar][NMeF]A[NMeF][NMeL]TD[NMeA]I-Piperidide; lactam N-11)	20 µL/min/mg	18 ×10⁻⁶ cm/s		
CC(C)C[C@H]1C(=O)N(C)[C@@H](CC(C)C)C(=O)N(C)[C@@H](Cc2ccccc2)C(=O)N[C@H](C(=O)N2CCCCC2)CC(=O)N[C@@H](C(C)C)C(=O)N(C)CC(=O)N[C@@H]([C@@H](C)O)C(=O)N1C [DP-719] (V[Sar]T[NMeL][NMeL][NMeF]D-Piperidide; lactam N-7)	218 µL/min/mg	26 ×10⁻⁶ cm/s		
CC(C)C[C@H]1C(=O)N[C@@H]([C@@H](C)O)C(=O)N(C)[C@@H](Cc2ccccc2)C(=O)N(C)[C@@H](CC(C)C)C(=O)NCC(=O)N(C)[C@@H](C(C)C)C(=O)N[C@@H](Cc2ccccc2)C(=O)N[C@H](C(=O)N2CCCCC2)CC(=O)N(C)[C@H](C)C(=O)N[C@@H](COC(C)(C)C)C(=O)N1C [DP-260] ([dNMeA]S(tBu)[NMeL]T[NMeF][NMeL]G[NMeV]FD-Piperidide; lactam N-10)	259 µL/min/mg	44 ×10⁻⁶ cm/s		
